This is an account of results in patent US11912719B2, “Substituted isoquinolines as rock kinase inhibitors” (Cervello Therapeutics LLC, priority 2018, dated 2024).

Usually IC50 stands for the midpoint of a concentration-inhibition curve.

Holding throughout (format): biochemical
In assay [1] the target is T1, human ROCK2 enzyme kinase domain (Homo sapiens, UniProt O75116).
T1 construct: GST; purchased Carna BioSciences 01-110
In words: fluorescence coupling (TR-FRET) enzymatic assay, ROCK2. As to conditions: 4 nM enzyme, 50 nM Ulight-CREBTide, one hour room temperature. (TR-FRET usually uses a lanthanide donor and a delayed reading to cut background.)

The target of assay [2] is T2, human AKT1 catalytic domain (Homo sapiens, UniProt P31749).
T2 construct: GST; purchased Carna BioSciences 01-101
In words: fluorescence coupling (TR-FRET) enzymatic assay, AKT1 off-target control. The conditions noted are these: 0.5 nM enzyme, 4 μM ATP, 50 nM Ulight-CREBTide, one hour room temperature.

For assay [3], the target named is T3, PKACα (PRKACA) (Homo sapiens, UniProt P17612).
T3 construct: GST; purchased Carna BioSciences 01-127
As to the kind of experiment: fluorescence coupling (TR-FRET) enzymatic assay, PKACA off-target control. The conditions noted are these: 10 pM enzyme, 1 μM ATP, 50 nM Ulight-CREBTide, one hour room temperature.

In assay [4] the target is T4, cGMP-dependent protein kinase 1 (PKG or PRKG1) (Homo sapiens, UniProt Q13976).
T4 construct: GST; purchased Carna BioSciences 01-142
T4 sequence (Q13976 1-686 isoform Q13976-2): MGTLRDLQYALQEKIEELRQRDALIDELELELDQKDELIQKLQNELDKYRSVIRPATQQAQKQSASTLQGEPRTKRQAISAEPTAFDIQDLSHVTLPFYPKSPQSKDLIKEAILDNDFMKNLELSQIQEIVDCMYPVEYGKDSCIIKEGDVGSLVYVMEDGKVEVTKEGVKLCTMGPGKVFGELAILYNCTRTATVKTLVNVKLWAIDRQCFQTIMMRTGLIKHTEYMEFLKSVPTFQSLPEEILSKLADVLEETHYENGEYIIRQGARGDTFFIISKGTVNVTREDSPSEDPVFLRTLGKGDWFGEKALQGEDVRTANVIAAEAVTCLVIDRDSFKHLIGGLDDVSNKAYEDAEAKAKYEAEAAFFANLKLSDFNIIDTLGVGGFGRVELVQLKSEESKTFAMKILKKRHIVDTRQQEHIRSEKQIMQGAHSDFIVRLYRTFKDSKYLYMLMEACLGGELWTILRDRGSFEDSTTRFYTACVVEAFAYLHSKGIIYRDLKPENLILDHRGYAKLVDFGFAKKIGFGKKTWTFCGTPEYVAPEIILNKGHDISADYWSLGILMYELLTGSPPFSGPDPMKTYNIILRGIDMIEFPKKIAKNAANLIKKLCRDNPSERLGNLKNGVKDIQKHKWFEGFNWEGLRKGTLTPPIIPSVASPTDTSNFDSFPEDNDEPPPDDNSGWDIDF
As to the kind of experiment: fluorescence coupling (TR-FRET) enzymatic assay, PKG off-target control. The conditions noted are these: 8 nM enzyme, 30 μM ATP, 50 nM Ulight-CREBTide, one hour room temperature.

In assay [5] the target is T5, human ROCK1 catalytic domain (Homo sapiens, UniProt Q13464).
T5 construct: GST; purchased Carna BioSciences 01-109
As to the kind of experiment: fluorescence coupling (TR-FRET) enzymatic assay, ROCK1. As to conditions: 4 nM enzyme, 4 μM ATP, 50 nM Ulight-CREBTide, one hour room temperature; read-out: ROCK1 IC50.

Each structure is given as a SMILES string.

T1 sequence (O75116 1-553): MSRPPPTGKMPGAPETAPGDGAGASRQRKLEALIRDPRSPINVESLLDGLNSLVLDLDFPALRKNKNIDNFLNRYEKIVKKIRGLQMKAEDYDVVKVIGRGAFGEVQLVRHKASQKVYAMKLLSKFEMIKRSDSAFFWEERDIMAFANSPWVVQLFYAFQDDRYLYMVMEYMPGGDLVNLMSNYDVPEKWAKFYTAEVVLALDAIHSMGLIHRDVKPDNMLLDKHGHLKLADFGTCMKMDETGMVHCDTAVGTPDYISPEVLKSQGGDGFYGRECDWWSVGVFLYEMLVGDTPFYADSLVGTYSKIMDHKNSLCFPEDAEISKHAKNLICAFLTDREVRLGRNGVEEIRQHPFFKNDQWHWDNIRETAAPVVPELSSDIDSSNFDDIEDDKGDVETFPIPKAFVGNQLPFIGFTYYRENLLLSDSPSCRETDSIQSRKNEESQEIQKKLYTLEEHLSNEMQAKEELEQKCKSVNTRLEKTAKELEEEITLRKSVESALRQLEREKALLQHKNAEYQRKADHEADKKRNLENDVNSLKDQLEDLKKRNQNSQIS
T2 sequence (P31749 104-480): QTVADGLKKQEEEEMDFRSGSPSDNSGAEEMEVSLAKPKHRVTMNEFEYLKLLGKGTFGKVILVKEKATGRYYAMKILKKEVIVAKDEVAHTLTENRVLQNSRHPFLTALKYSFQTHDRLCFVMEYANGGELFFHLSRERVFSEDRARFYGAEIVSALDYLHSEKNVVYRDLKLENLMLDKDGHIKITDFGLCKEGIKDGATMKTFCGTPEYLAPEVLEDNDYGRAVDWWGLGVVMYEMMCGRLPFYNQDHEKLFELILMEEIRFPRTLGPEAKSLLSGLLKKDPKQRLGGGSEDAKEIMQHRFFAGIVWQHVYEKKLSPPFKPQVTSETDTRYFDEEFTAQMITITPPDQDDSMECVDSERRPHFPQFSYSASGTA
T5 sequence (Q13464 1-477): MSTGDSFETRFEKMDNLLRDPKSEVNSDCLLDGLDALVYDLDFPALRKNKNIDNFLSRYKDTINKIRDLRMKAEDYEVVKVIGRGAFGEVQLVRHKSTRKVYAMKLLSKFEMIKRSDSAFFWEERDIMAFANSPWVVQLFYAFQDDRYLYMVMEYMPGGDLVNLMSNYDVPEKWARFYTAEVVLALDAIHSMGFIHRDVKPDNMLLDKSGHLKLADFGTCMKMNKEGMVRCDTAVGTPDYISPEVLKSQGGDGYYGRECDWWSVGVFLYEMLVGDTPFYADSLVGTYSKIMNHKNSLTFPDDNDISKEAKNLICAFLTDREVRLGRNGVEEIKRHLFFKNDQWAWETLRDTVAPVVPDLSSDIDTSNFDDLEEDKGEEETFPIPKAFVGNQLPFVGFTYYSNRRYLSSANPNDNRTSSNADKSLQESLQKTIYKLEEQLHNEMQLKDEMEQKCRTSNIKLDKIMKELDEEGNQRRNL

As to `CN(C)c1cc(C#N)cc2c1CCN2S(=O)(=O)c1cccc2c(=O)[nH]cc(Cl)c12` [Example 37, 1-((4-chloro-1-oxo-1,2-dihydroisoquinolin-5-yl)sulfonyl)-4-(dimethylamino)indoline-6-carbonitrile], the IC50 in assay [1] is 100 to 1000 nM; in assay [2], greater than 10 µM; in assay [3] it was greater than 10 µM; in assay [4], greater than 10 µM; in assay [5], 100 to 1000 nM.

With `N#Cc1cnc2c(c1)N(S(=O)(=O)c1cccc3c(=O)[nH]ccc13)CC2` [Example 38, 1-((1-oxo-1,2-dihydroisoquinolin-5-yl)sulfonyl)-2,3-dihydro-1H-pyrrolo[3,2-b]pyridine-6-carbonitrile], the IC50 in assay [1] is 100 to 1000 nM; in assay [2], greater than 10 µM; in assay [3] it was greater than 10 µM; in assay [4], greater than 10 µM; in assay [5], 100 to 1000 nM.

Take `Cc1c[nH]c(=O)c2cccc(S(=O)(=O)N3CCc4ncc(C#N)cc43)c12` [Example 39, 1-((4-methyl-1-oxo-1,2-dihydroisoquinolin-5-yl)sulfonyl)-2,3-dihydro-1H-pyrrolo[3,2-b]pyridine-6-carbonitrile]: the IC50 in assay [1] is 100 to 1000 nM; in assay [2], greater than 10 µM; in assay [3] it was greater than 10 µM; in assay [4] it was greater than 10 µM; in assay [5], 100 to 1000 nM.

Consider `N#Cc1cnc2c(c1)N(S(=O)(=O)c1cccc3c(=O)[nH]cc(Cl)c13)CC2` [Example 40, 1-((4-chloro-1-oxo-1,2-dihydroisoquinolin-5-yl)sulfonyl)-2,3-dihydro-1H-pyrrolo[3,2-b]pyridine-6-carbonitrile], for which the IC50 was less than 100 nM in assay [1]; greater than 10 µM in assay [2]; greater than 10 µM in assay [3]; greater than 10 µM in assay [4]; less than 100 nM in assay [5].

Take `CNc1cc(C#N)cc2c1CCN2S(=O)(=O)c1cccc2c(=O)[nH]cc(C)c12` [Example 41, 1-((4-methyl-1-oxo-1,2-dihydroisoquinolin-5-yl)sulfonyl)-4-(methylamino)indoline-6-carbonitrile]: the IC50 in assay [1] is 100 to 1000 nM; in assay [2], greater than 10 µM; in assay [3], greater than 10 µM; in assay [4] it was greater than 10 µM; in assay [5], 100 to 1000 nM.

Regarding `CNc1cc(C#N)cc2c1CCN2S(=O)(=O)c1cccc2c(=O)[nH]cc(Cl)c12` [Example 42, 1-((4-chloro-1-oxo-1,2-dihydroisoquinolin-5-yl)sulfonyl)-4-(methylamino)indoline-6-carbonitrile], the IC50 in assay [1] was less than 100 nM; in assay [2], greater than 10 µM; in assay [3], greater than 10 µM; in assay [4] it was greater than 10 µM; in assay [5] it was 100 to 1000 nM.

On to `CCNc1cc(C#N)cc2c1CCN2S(=O)(=O)c1cccc2c(=O)[nH]cc(C)c12` [Example 43, 4-(ethylamino)-1-((4-methyl-1-oxo-1,2-dihydroisoquinolin-5-yl)sulfonyl)indoline-6-carbonitrile], for which the IC50 was 100 to 1000 nM in assay [1]; greater than 10 µM in assay [2]; greater than 10 µM in assay [3]; greater than 10 µM in assay [4]; 1000 to 10000 nM in assay [5].

As for `CCNc1cc(C#N)cc2c1CCN2S(=O)(=O)c1cccc2c(=O)[nH]cc(Cl)c12` [Example 44, 1-((4-chloro-1-oxo-1,2-dihydroisoquinolin-5-yl)sulfonyl)-4-(ethylamino)indoline-6-carbonitrile], the IC50 was 1000 to 10000 nM in assay [1]; greater than 10 µM in assay [2]; greater than 10 µM in assay [3]; greater than 10 µM in assay [4]; 1000 to 10000 nM in assay [5].

With `Cc1c[nH]c(=O)c2cccc(S(=O)(=O)N3CCc4c(NCCN5C[C@H]6C[C@@H]5CO6)cc(C#N)cc43)c12` [Example 45], the IC50 in assay [1] was less than 100 nM; in assay [2], less than 0.1 µM; in assay [3], 0.1 to 1 µM; in assay [4] it was 1 to 10 µM; in assay [5] it was less than 100 nM.
